Eight molecules from ChEMBL document CHEMBL1133495 (Bioorg Med Chem Lett, 2000) can be followed below.

Sequence of Sodium-dependent noradrenaline transporter (P23975 whole entry): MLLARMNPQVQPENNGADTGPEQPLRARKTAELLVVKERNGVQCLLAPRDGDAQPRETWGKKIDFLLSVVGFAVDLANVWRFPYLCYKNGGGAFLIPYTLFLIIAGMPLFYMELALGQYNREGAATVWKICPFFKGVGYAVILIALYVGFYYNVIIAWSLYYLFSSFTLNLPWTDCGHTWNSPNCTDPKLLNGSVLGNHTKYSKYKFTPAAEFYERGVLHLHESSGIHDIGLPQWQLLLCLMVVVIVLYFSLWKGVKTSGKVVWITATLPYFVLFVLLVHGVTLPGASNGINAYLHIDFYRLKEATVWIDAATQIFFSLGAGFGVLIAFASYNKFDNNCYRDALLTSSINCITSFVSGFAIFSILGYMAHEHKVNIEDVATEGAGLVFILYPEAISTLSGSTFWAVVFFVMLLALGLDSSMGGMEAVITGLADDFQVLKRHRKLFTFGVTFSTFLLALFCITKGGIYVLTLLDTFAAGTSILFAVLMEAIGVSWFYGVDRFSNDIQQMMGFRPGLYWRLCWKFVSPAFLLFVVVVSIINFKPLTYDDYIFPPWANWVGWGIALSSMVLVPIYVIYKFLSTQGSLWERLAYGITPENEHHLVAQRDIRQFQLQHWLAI
Sequence of Sodium-dependent dopamine transporter (Q01959 whole entry): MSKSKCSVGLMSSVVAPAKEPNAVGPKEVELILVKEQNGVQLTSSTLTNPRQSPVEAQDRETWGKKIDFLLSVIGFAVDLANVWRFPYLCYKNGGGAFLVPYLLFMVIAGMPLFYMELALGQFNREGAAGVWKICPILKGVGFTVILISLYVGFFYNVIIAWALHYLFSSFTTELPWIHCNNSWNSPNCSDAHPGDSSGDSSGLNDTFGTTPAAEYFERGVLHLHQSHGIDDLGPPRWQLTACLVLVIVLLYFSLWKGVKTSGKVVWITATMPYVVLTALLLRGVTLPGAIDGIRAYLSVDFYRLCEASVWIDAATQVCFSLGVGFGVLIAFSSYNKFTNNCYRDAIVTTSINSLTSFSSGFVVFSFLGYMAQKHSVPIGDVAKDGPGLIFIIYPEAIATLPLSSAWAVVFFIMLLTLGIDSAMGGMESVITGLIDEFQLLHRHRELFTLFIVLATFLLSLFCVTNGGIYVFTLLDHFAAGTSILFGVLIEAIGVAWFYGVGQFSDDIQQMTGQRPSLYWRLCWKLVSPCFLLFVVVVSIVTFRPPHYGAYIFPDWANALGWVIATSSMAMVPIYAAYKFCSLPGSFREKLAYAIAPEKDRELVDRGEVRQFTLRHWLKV
Sequence of Sodium-dependent serotonin transporter (P31645 whole entry): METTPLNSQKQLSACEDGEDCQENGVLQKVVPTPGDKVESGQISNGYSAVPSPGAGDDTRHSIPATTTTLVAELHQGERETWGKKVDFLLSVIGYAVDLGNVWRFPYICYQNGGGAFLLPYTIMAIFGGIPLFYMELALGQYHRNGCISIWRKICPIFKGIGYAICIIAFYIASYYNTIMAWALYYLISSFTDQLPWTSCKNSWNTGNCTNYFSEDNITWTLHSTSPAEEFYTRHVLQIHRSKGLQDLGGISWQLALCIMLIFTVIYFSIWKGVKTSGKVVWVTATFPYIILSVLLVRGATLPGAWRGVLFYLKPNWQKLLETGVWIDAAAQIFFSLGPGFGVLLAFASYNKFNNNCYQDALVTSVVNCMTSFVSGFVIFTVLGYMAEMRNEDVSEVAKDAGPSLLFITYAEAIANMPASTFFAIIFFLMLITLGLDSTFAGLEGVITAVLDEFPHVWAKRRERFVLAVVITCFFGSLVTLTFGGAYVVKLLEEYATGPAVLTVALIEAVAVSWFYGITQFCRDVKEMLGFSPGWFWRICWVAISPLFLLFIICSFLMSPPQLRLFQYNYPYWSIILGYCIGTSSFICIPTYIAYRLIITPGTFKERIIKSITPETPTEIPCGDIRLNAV

One assay concerns the target Sodium-dependent noradrenaline transporter (Homo sapiens, UniProt P23975). Kind of assay: The compound was tested for inhibition of [3H]norepinephrine uptake in HEK cells by expressing cDNA for human norepinephrine transporter. It is filed as cell-based, HEK293.
One may read the IC50 as the concentration needed to halve the response being measured. Low values mean inhibition by little substance, high ones a need for much substance. Take `O=C1CN2C3CC[C@@H]2C[C@H](c2ccc(F)cc2)C13`: the IC50 amounted to 620 nM.
`C=C1CN2C3CC[C@@H]2C[C@H](c2ccc(C)cc2)C13` came in with an IC50 of 2.2 nM.
On the same count and under the same terms, as for `Cc1ccc([C@H]2C[C@H]3CCC4C2C(=O)CN43)cc1`, the figure is 110 nM; as for `Cc1ccc([C@H]2C[C@H]3CCC4C2[C@@](O)(c2ccccc2)CN43)cc1`, 11 nM.
Still for that read-out and setting: as for `CCC[C@@]1(O)CN2C3CC[C@@H]2C[C@H](c2ccc(C)cc2)C31`, the figure is 18 nM.
The same measure, in the same setting: as for `Cc1ccc([C@H]2C[C@H]3CCC4C2[C@@](O)(c2ccc(Cl)cc2)CN43)cc1`, the figure is 23 nM; as for `CCCC1C2C3CCN2[C@H](C3)C[C@@H]1c1ccc(C)cc1` (stereo partly drawn), 109 nM.
`Cc1ccc([C@H]2C[C@H]3CCC4C2[C@](C)(O)CN43)cc1` registered an IC50 of 296 nM.

Another assay addresses Sodium-dependent serotonin transporter (Homo sapiens, UniProt P31645). Kind of assay: The compound was tested for inhibition of [3H]-5-hydroxy tryptamine uptake in HEK cells by expressing cDNA for human […]. It is filed as cell-based, HEK293.
As to `O=C1CN2C3CC[C@@H]2C[C@H](c2ccc(F)cc2)C13`, the IC50 was 251 nM.
The same measure, in the same setting: the figure for `C=C1CN2C3CC[C@@H]2C[C@H](c2ccc(C)cc2)C13` is 33 nM; for `Cc1ccc([C@H]2C[C@H]3CCC4C2C(=O)CN43)cc1` it is 68 nM; for `Cc1ccc([C@H]2C[C@H]3CCC4C2[C@@](O)(c2ccccc2)CN43)cc1` it is 7.9 nM.
Still for that read-out and setting: as for `CCC[C@@]1(O)CN2C3CC[C@@H]2C[C@H](c2ccc(C)cc2)C31`, the figure is 41 nM.
Regarding `Cc1ccc([C@H]2C[C@H]3CCC4C2[C@@](O)(c2ccc(Cl)cc2)CN43)cc1`, half-maximal inhibition (IC50) required 13 nM.
The same measure, in the same setting: as for `Cc1ccc([C@H]2C[C@H]3CCC4C2[C@](C)(O)CN43)cc1`, the figure is 147 nM.

A further assay deals with Monoamine transporters; serotonin & dopamine (Homo sapiens) (UniProt P31645+Q01959). Kind of assay: Ratio of 5-hydroxy tryptamine and dopamine transporter inhibition. It is filed as protein assay.
Sequence of Monoamine transporters; serotonin & dopamine (Homo sapiens) (P31645 whole entry, looked up): as the sequence (P31645 whole entry) above
Sequence of Monoamine transporters; serotonin & dopamine (Homo sapiens) (Q01959 whole entry, looked up): as the sequence (Q01959 whole entry) above
In the case of `O=C1CN2C3CC[C@@H]2C[C@H](c2ccc(F)cc2)C13`, the Ratio was determined as 0.076.
The same measure, in the same setting: the figure for `C=C1CN2C3CC[C@@H]2C[C@H](c2ccc(C)cc2)C13` is 0.49.
The same measure, in the same setting: the figure for `Cc1ccc([C@H]2C[C@H]3CCC4C2C(=O)CN43)cc1` is 0.13; for `CCC[C@@]1(O)CN2C3CC[C@@H]2C[C@H](c2ccc(C)cc2)C31` it is 0.11; for `Cc1ccc([C@H]2C[C@H]3CCC4C2[C@@](O)(c2ccc(Cl)cc2)CN43)cc1` it is 0.3.
The same measure, in the same setting: the figure for `Cc1ccc([C@H]2C[C@H]3CCC4C2[C@](C)(O)CN43)cc1` is 0.38.

Another assay concerns the target Sodium-dependent dopamine transporter (Homo sapiens, UniProt Q01959). Kind of assay: Inhibition of [3H]dopamine uptake in HEK cells expressing human Dopamine transporter. It is filed as cell-based, HEK293.
For `O=C1CN2C3CC[C@@H]2C[C@H](c2ccc(F)cc2)C13`, the midpoint of inhibition, the IC50, lay at 3320 nM.
Same read-out and setting: the figure for `C=C1CN2C3CC[C@@H]2C[C@H](c2ccc(C)cc2)C13` is 67 nM.
The same measure, in the same setting: as for `Cc1ccc([C@H]2C[C@H]3CCC4C2C(=O)CN43)cc1`, the figure is 538 nM; as for `CCC[C@@]1(O)CN2C3CC[C@@H]2C[C@H](c2ccc(C)cc2)C31`, 373 nM; as for `Cc1ccc([C@H]2C[C@H]3CCC4C2[C@@](O)(c2ccc(Cl)cc2)CN43)cc1`, 44 nM.
For `CCCC1C2C3CCN2[C@H](C3)C[C@@H]1c1ccc(C)cc1` (stereo partly drawn), the midpoint of inhibition, the IC50, lay at 570 nM.
On the same count and under the same terms, as for `Cc1ccc([C@H]2C[C@H]3CCC4C2[C@](C)(O)CN43)cc1`, the figure is 390 nM.
